Results published in US11331299B2, “Medicinal use of serrulatane diterpenes” (The University of Sydney, priority 2016, dated 2022).
Like-named read-outs stand apart in the source and are kept apart here.

Assays:
[1] = target: T1, BRPF1-1 (h) bromodomain (Homo sapiens, UniProt P55201); assay: Epigenetic binding assay, Bromodomain; settings: Table 4; read-out: Reference IC50
T1 construct: Bromodomain
T1 sequence (P55201 628-732 limits assumed): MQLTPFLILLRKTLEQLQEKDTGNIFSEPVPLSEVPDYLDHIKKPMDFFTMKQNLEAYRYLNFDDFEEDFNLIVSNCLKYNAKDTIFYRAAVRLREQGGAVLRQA

[2] = target: receptors (Bioprint panel); assay: biochemical; type: binding; settings: read-out: Reference Compound IC50
[3] = target: T2, FALZ (h) bromodomain (Homo sapiens, UniProt Q12830); assay: Epigenetic binding assay, Bromodomain; settings: Table 4; read-out: Reference IC50
T2 construct: Bromodomain; Eurofins CEREP (France), contract laboratory

[4] = target: T3, PHIP(2) (h) bromodomain (Homo sapiens, UniProt Q8WWQ0); assay: Epigenetic binding assay, Bromodomain; settings: Table 4; read-out: Reference IC50
T3 construct: Bromodomain

[5] = test system: HMEC; assay: OncoPanel normal cell proliferation assay (3-day); type: cell-based; settings: Homo sapiens, 72 h, HMEC, mammary epithelial, 3-day incubation; for EC50: read-out: Cell Count EC50; for GI50: read-out: Cell Count GI50; for IC50: read-out: Cell Count IC50
[6] = test system: HREC; assay: OncoPanel normal cell proliferation assay (3-day); type: cell-based; settings: 72 h, renal mixed epithelial, 3-day incubation; for GI50: read-out: Cell Count GI50; for EC50: read-out: Cell Count EC50; for IC50: read-out: Cell Count IC50
[7] = test system: CCD 841 CoN; assay: OncoPanel normal cell proliferation assay (3-day); type: cell-based; settings: Homo sapiens, 72 h, colon epithelial, 3-day incubation; for GI50: read-out: Cell Count GI50; for EC50: read-out: Cell Count EC50; for IC50: read-out: Cell Count IC50
[8] = test system: Wi38; assay: OncoPanel normal cell proliferation assay (3-day); type: cell-based; settings: Homo sapiens, WI-38, 72 h, Wi38, lung fibroblast, 3-day incubation; for EC50: read-out: Cell Count EC50; for GI50: read-out: Cell Count GI50; for IC50: read-out: Cell Count IC50
[9] = type: in vivo, female NOD/SCID mice; settings: Study 1, IP, 35 mg/kg
Experimental: Two studies were conducted by Eurofins Panlabs Taiwan, Ltd. The purpose of Study 1 was to assess the possible adverse effects of Compound 1 alone or in combination with […] in Maximum Tolerated Dose (MTD) assay. The purpose of Study 2 is a follow-up study performed at escalating doses.
Compound 1 was dissolved in 10% Tween 20/90% PBS or 20% Tween 20/80% PBS for IP injections. Compound 1 was administrated alone or in combination with […] at a dosing volume of 10 or 20 mL/kg for each substance.
For mortality, test substance (Compound 1; 100 mg/kg) alone or in combination with […] (8.75, 17.5, or 35 mg/kg; given on the same day) was administered to mice by IP injection to evaluate the possible adverse effects in MTD assay. […]. […]
A follow-up MTD study was performed to evaluate for the adverse effects of the test substance (Compound 1) at escalating doses alone or in combination with […] (17.5 mg/kg) via IP in a group of 3 female NOD/SCID mice at 6-7 weeks of age.
For mortality, treatment with Compound 1 at escalating doses (200 mg/kg) alone and in combination with […] (17.5 mg/kg; given on the same day) were administered by IP injection to a group of 3 female NOD/SCID mice at 6-7 weeks of age. The mortality was monitored at 30 min and again at 3, 24, 48 and 72 hours after compound administrations.
For body weight, test substance (Compound 1) at escalating doses (200 mg/kg) alone or in combination with […] (17.5 mg/kg; given on the same day) were administered by IP injection to a group of 3 female NOD/SCID mice at 6-7 weeks of age. The body weight of each animal was measured and recorded daily for 3 days.
For behavioral, symptomatic i.e. neurological and autonomic signs, test substance (Compound 1; 200 mg/kg) alone or in combination with […] (17.5 mg/kg; given on the same day) were administered by IP injection to a group of 3 female NOD/SCID mice at 6-7 weeks of age. The animals were then observed for presences of acute toxic symptoms and autonomic effects for 30 min after the first dose.

[10] = target: T4, SP140 (h) bromodomain (Homo sapiens, UniProt Q13342); assay: Epigenetic binding assay, Bromodomain
T4 construct: SP140 (h) bromodomain

[11] = target: T5, ATAD2A (h) bromodomain (Homo sapiens, UniProt Q6PL18); assay: Epigenetic binding assay, Bromodomain; settings: Table 9, inhibition/concentration-response curve; read-out: IC50
T5 construct: Bromodomain
T5 sequence (Q6PL18 980-1092 limits assumed): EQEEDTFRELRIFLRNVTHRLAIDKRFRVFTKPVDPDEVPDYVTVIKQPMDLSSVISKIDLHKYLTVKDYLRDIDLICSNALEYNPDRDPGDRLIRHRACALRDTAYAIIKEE

[12] = test system: human pancreatic carcinoma MIA PaCa-2; settings: 80 mg/kg Q4D x 4 IP
[13] = target: T6, KAT2A (GCN5L2) (h) bromodomain (Homo sapiens, UniProt Q92830); assay: Epigenetic binding assay, Bromodomain; settings: Table 9, inhibition/concentration-response curve; read-out: IC50
T6 construct: Bromodomain
T6 sequence (Q92830 728-832 limits assumed): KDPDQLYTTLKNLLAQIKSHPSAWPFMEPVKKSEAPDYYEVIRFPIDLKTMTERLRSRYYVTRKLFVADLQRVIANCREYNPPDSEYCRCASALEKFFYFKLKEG

[14] = target: T7, TAF1(2)(h) bromodomain (Homo sapiens, UniProt P21675); assay: Epigenetic binding assay, Bromodomain; settings: Table 4; read-out: Reference IC50
T7 construct: Bromodomain
T7 sequence (P21675 1519-1628 limits assumed): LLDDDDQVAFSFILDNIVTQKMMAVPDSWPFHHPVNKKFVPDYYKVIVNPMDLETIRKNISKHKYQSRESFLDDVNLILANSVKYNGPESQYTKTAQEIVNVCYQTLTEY

[15] = target: T8, TAF1(1) (h) bromodomain (Homo sapiens, UniProt P21675); assay: Epigenetic binding assay, Bromodomain; settings: Table 4; read-out: Reference IC50
T8 construct: Bromodomain
T8 sequence (P21675 1397-1505 limits assumed): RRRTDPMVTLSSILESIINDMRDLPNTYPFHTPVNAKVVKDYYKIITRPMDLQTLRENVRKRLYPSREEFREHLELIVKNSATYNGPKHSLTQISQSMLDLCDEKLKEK

T4 sequence (Q13342 754-857 limits assumed): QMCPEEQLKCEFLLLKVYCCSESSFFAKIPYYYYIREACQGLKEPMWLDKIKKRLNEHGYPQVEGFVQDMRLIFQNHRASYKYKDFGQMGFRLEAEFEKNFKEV

`CCOC(=O)Nc1cc(-c2ccc(C)c(NS(C)(=O)=O)c2)nn2c(C)nnc12` [Bromosporine, reference compound] showed an IC50 [1] of 26 nM.
Compound “[Nleu13]-motilin (FVPIFTYGELQRLQEKERNKGQ; Motilin norleucine at 13; UniProt P12872 26-47, looked up, variant M13L)” has an IC50 ([2]; motilin(h) (agonist radioligand)) of 0.89 nM.
Work on `CCC(=O)N1CCOc2c(cc(-c3ccc(OC)c(OC)c3)cc2OC[C@H]2CCCN(C)C2)C1` [I-CBP112, reference compound] yielded an IC50 [3] of 24500 nM.
Work on `C=C(C)[C@H]1CN[C@H](C(=O)O)[C@H]1CC(=O)O` [kainic acid] yielded an IC50 [2] of 23 nM.
With alpha -bungarotoxin the IC50 [2] was 1.9 nM.
For glucagon, the IC50 ([2]; glucagon (h) (agonist radioligand)) was 1 nM.
`COc1ccc([C@@H]2Sc3ccccc3N(CCN(C)C)C(=O)[C@@H]2OC(C)=O)cc1` [diltiazem] gave an IC50 ([2]; Ca2+ channel (L, diltiazem site) (benzothiazepines) (antagonist radioligand)) of 57 nM.
`C[C@]12N[C@H](Cc3ccccc31)c1ccccc12` [MK 801] showed an IC50 ([2]; GLUTAMATE CHANNELS PCP (antagonist radioligand)) of 9.6 nM.
Work on `COc1ccc(CCc2nc3cc(-c4c(C)noc4C)ccc3n2C[C@H](C)N2CCOCC2)cc1Cl` [SGC-CBP30, reference compound] yielded an IC50 [4] of 130 nM.
Compound `CN[C@@H]1C[C@H]2O[C@@](C)([C@@H]1OC)n1c3ccccc3c3c4c(c5c6ccccc6n2c5c31)C(=O)NC4` [Staurosporine] has an EC50 [5] of 2.29 nM, a GI50 [5] of 0.91 nM and a GI50 [6] of 0.5 nM. It also gave a GI50 [7] of 0.19 nM, an EC50 [8] of 0.49 nM and a GI50 [8] of 0.33 nM.
For `N#CC(C#N)=NNc1cccc(Cl)c1` [Carbonyl cyanide 3-chlorophenylhydrazone], the EC50 [5] was over 10000 nM, the GI50 [5] was 175 nM and the IC50 [5] was over 10000 nM. For the same compound, the EC50 [6] was 553 nM, the GI50 [6] was 308 nM and the IC50 [6] was 1520 nM. It also gave an EC50 [7] of 10000 nM, a GI50 [7] of 6210 nM and an IC50 [7] of 10000 nM. The EC50 [8] was 8840 nM, the GI50 [8] was 6150 nM and the IC50 [8] was 8840 nM.
`CCCCC[C@H](O)/C=C/[C@@H]1[C@@H](C/C=C\CCCC(=O)O)[C@@H](O)C[C@H]1O` [PGF2alpha] showed an IC50 ([2]; […] (h) (agonist radioligand)) of 3 nM.
Compound TNF-alpha has an IC50 ([2]; CYTOKINES TNF-alpha (h) (agonist radioligand)) of 0.16 nM.
`C=C(C)[C@@H]1[C@H]2OC(=O)[C@@H]1[C@]1(O)C[C@H]3O[C@]34C(=O)O[C@H]2[C@]14C` [picrotoxinin] showed an IC50 ([2]; Cl- channel (GABA-gated) (antagonist radioligand)) of 330 nM.
Compound `CN1C(=O)CN=C(c2ccccc2)c2cc(Cl)ccc21` [diazepam] has an IC50 [2] of 9.4 nM.
Work on `C[C@@H]1C[C@@H]([C@H](O)CC2CC(=O)NC(=O)C2)C(=O)[C@@H](C)C1` [cycloheximide, reference compound] yielded an EC50 [5] of 3650 nM, a GI50 [5] of 306 nM and an IC50 [5] of 10000 nM. The EC50 [6] was 117 nM, the GI50 [6] was 36.9 nM and the IC50 [6] was 593 nM. The EC50 [7] was 505 nM, the GI50 [7] was 588 nM and the IC50 [7] was 2770 nM. It also gave an EC50 [8] of 285 nM, a GI50 [8] of 369 nM and an IC50 [8] of 871 nM.
In the case of `N[C@@H](CCC(=O)O)C(=O)O` [L-glutamate], the IC50 ([2]; GLUTAMATE CHANNELS AMPA (agonist radioligand)) is reported as 370 nM.
For carboplatin [reference compound], the “Response (death/test)” value ([9]; 30 min) was 0/3, the “Response (death/test)” value ([9]; 3 hrs) was 0/3 and the “Response (death/test)” value ([9]; Day 1) was 0/3. For the same compound, the “Response (death/test)” value ([9]; Day 2) was 0/3 and the “Response (death/test)” value ([9]; Day 3) was 0/3.
For `CCCCCCCCCCCCCCCCOC[C@H](COP(=O)([O-])OCC[N+](C)(C)C)OC(C)=O` [Compound C16-PAF], the IC50 ([2]; PLATELET ACTIVATED FACTOR PAF (h) (agonist radioligand)) was 3.4 nM.
For `Cc1cc(/N=N/c2cc(S(=O)(=O)O)c(C)cc2C)c(N)cc1O` [Ischemin, reference compound], the IC50 ([10]; Table 4, read-out: Reference IC50) was 86000 nM, the IC50 ([10]; Table 9, inhibition/concentration-response curve, read-out: IC50) was 11000 nM and the IC50 [11] was 5200 nM.
With NPY the IC50 ([2]; NE[…] Y1 (h) (agonist radioligand)) was 0.16 nM.
With `Nc1ccn([C@@H]2O[C@H](CO)[C@@H](O)C2(F)F)c(=O)n1` [Gemcitabine, reference compound] the “% T/C” value ([12]; Day 1) was 99%, the “% TGI” value ([12]; Day 1) was 1% and the “Tumor Volume, Mean” value ([12]; Day 1) was 89 mm3. The “% T/C” value ([12]; Day 4) was 100%, the “% TGI” value ([12]; Day 4) was 0% and the “Tumor Volume, Mean” value ([12]; Day 4) was 94 mm3. For the same compound, the “% T/C” value ([12]; Day 8) was 81%, the “% TGI” value ([12]; Day 8) was 19% and the “Tumor Volume, Mean” value ([12]; Day 8) was 107 mm3. The “% T/C” value ([12]; Day 11) was 70%, the “% TGI” value ([12]; Day 11) was 30% and the “Tumor Volume, Mean” value ([12]; Day 11) was 139 mm3. For the same compound, the “% T/C” value ([12]; Day 15) was 55%, the “% TGI” value ([12]; Day 15) was 45% and the “Tumor Volume, Mean” value ([12]; Day 15) was 207 mm3.
Compound `CCCOc1ccn2c(C(C)=O)cc(-c3ccccc3S(C)(=O)=O)c2c1` [GSK2801, reference compound] has an IC50 [13] of 10000 nM, an IC50 [14] of 10000 nM and an IC50 [15] of 4400 nM.
`C[C@H](NC[C@H](O)CP(=O)(O)CC1CCCCC1)c1ccc(Cl)c(Cl)c1` [CGP 54626] gave an IC50 ([2]; GABA GABAB(1b) (h) (antagonist radioligand)) of 2.2 nM.
omega -conotoxin GVIA showed an IC50 [2] of 0.0017 nM.
